Data published in ChEMBL document CHEMBL1140184, “Synthesis and structure-activity relationship studies of highly potent novel oxazolidinone antibacterials” (2008).
≈ marks a conversion by molar mass, not a printed value.

Tests used:
Format in all cases: functional
Staphylococcus aureus [1] = test: Antibacterial activity against methicillin-sensitive Staphylococcus aureus Smith by agar dilution method
Streptococcus pneumoniae [2] = test: Antibacterial activity against penicillin-resistant Streptococcus pneumoniae PR44 by agar dilution method
Enterococcus faecium = test: Antibacterial activity against vancomycin-resistant Enterococcus faecium A2280 by agar dilution method
Haemophilus influenzae = test: Antibacterial activity against Haemophilus influenzae IID983 by agar dilution method
Staphylococcus aureus [3] = test: Antibacterial activity against methicillin-resistant Staphylococcus aureus TK7 by agar dilution method
Streptococcus pneumoniae [4] = test: Antibacterial activity against penicillin-susceptible Streptococcus pneumoniae IID553 by agar dilution method

| Compound | MIC (Staphylococcus aureus [1]) [µg/mL] | MIC (Streptococcus pneumoniae [2]) [µg/mL] | MIC (Enterococcus faecium) [µg/mL] | MIC (Haemophilus influenzae) [µg/mL] | MIC (Staphylococcus aureus [3]) [µg/mL] | MIC (Streptococcus pneumoniae [4]) [µg/mL] |
| --- | --- | --- | --- | --- | --- | --- |
| N#C[C@]1(c2ccc(-c3c(F)cc(N4C[C@H](Cn5ccnn5)OC4=O)cc3F)cn2)[C@@H]2CSC[C@@H]21 | 0.06 (≈ 0.125 µM) | 0.25 (≈ 0.52 µM) | 0.5 (≈ 1.04 µM) | > 16 | 0.06 (≈ 0.125 µM) | 0.25 (≈ 0.52 µM) |
| N#Cc1ccc(N2C[C@@H]3[C@H](C2)[C@@]3(C#N)c2ccc(-c3ccc(N4C[C@H](Cn5ccnn5)OC4=O)cc3F)cn2)nc1 | 0.06 (≈ 0.11 µM) | 0.06 (≈ 0.11 µM) | 0.125 (≈ 0.228 µM) | > 2 | 0.06 (≈ 0.11 µM) | 0.125 (≈ 0.228 µM) |
| N#C[C@]1(c2ccc(-c3ccc(N4C[C@H](Cn5ccnn5)OC4=O)cc3F)cn2)[C@@H]2C[S+]([O-])C[C@@H]21 (some centres not stated) | 0.06 (≈ 0.125 µM) | 0.06 (≈ 0.125 µM) | 0.125 (≈ 0.261 µM) | 4 (≈ 8.36 µM) | 0.06 (≈ 0.125 µM) | 0.06 (≈ 0.125 µM) |
| N#C[C@]1(c2ccc(-c3ccc(N4C[C@H](Cn5ccnn5)OC4=O)cc3)cn2)[C@@H]2COC[C@@H]21 | 0.06 (≈ 0.14 µM) | 0.125 (≈ 0.292 µM) | 0.25 (≈ 0.583 µM) | 4 (≈ 9.34 µM) | 0.06 (≈ 0.14 µM) | 0.125 (≈ 0.292 µM) |
| N#C[C@]1(c2ccc(-c3ccc(N4C[C@H](Cn5ccnn5)OC4=O)cc3F)cn2)[C@@H]2CSC[C@@H]21 | 0.06 (≈ 0.13 µM) | 0.06 (≈ 0.13 µM) | 0.25 (≈ 0.541 µM) | > 2 | 0.06 (≈ 0.13 µM) | 0.125 (≈ 0.27 µM) |
| COC(=O)NC[C@H]1CN(c2ccc(-c3ccc([C@@]4(C#N)[C@@H]5CNC[C@@H]54)nc3)c(F)c2)C(=O)O1 | 0.125 (≈ 0.277 µM) | 0.125 (≈ 0.277 µM) | 0.125 (≈ 0.277 µM) | 4 (≈ 8.86 µM) | 0.125 (≈ 0.277 µM) | 0.125 (≈ 0.277 µM) |
| N#C[C@]1(c2ccc(-c3ccc(N4C[C@H](Cn5ccnn5)OC4=O)cc3)cn2)[C@@H]2CSC[C@@H]21 | 0.06 (≈ 0.135 µM) | 0.06 (≈ 0.135 µM) | 0.25 (≈ 0.562 µM) | 8 (≈ 18 µM) | 0.06 (≈ 0.135 µM) | 0.125 (≈ 0.281 µM) |
| N#C[C@]1(c2ccc(-c3c(F)cc(N4C[C@H](Cn5ccnn5)OC4=O)cc3F)cn2)[C@@H]2C[S+]([O-])C[C@@H]21 (some centres not stated) | 0.06 (≈ 0.121 µM) | 0.125 (≈ 0.252 µM) | 0.125 (≈ 0.252 µM) | 8 (≈ 16.1 µM) | 0.06 (≈ 0.121 µM) | 0.125 (≈ 0.252 µM) |
| NC(=O)[C@]1(c2ccc(-c3ccc(N4C[C@H](Cn5ccnn5)OC4=O)cc3F)cn2)[C@@H]2CNC[C@@H]21 | 2 (≈ 4.32 µM) | 0.5 (≈ 1.08 µM) | 4 (≈ 8.63 µM) | – | 2 (≈ 4.32 µM) | 1 (≈ 2.16 µM) |
| N#C[C@]1(c2ccc(-c3c(F)cc(N4C[C@H](Cn5ccnn5)OC4=O)cc3F)cn2)[C@@H]2CNC[C@@H]21 | 0.125 (≈ 0.27 µM) | 0.125 (≈ 0.27 µM) | 0.25 (≈ 0.539 µM) | 4 (≈ 8.63 µM) | 0.125 (≈ 0.27 µM) | 0.125 (≈ 0.27 µM) |
| N#C[C@]1(c2ccc(-c3ccc(N4C[C@H](Cn5ccnn5)OC4=O)cc3F)cc2F)[C@@H]2CNC[C@@H]21 | 0.25 (≈ 0.541 µM) | 0.25 (≈ 0.541 µM) | 0.25 (≈ 0.541 µM) | 16 (≈ 34.6 µM) | 0.125 (≈ 0.27 µM) | 0.25 (≈ 0.541 µM) |
| N#C[C@]1(c2ccc(-c3ccc(N4C[C@H](CNC(=O)C5CC5)OC4=O)cc3F)cn2)[C@@H]2CNC[C@@H]21 | 0.5 (≈ 1.08 µM) | 0.25 (≈ 0.542 µM) | 0.5 (≈ 1.08 µM) | 8 (≈ 17.3 µM) | 0.25 (≈ 0.542 µM) | 0.25 (≈ 0.542 µM) |
| CC(=O)NC[C@H]1CN(c2ccc(-c3ccc([C@@]4(C#N)[C@@H]5CNC[C@@H]54)nc3)c(F)c2)C(=O)O1 | 0.125 (≈ 0.287 µM) | 0.06 (≈ 0.138 µM) | 0.25 (≈ 0.574 µM) | 4 (≈ 9.19 µM) | 0.125 (≈ 0.287 µM) | 0.125 (≈ 0.287 µM) |
| N[C@]1(c2ccc(-c3ccc(N4C[C@H](Cn5ccnn5)OC4=O)cc3F)cn2)[C@@H]2CNC[C@@H]21 | 1 (≈ 2.3 µM) | 0.5 (≈ 1.15 µM) | 2 (≈ 4.59 µM) | 32 (≈ 73.5 µM) | 2 (≈ 4.59 µM) | 0.5 (≈ 1.15 µM) |
| NC[C@]1(c2ccc(-c3ccc(N4C[C@H](Cn5ccnn5)OC4=O)cc3F)cn2)[C@@H]2CNC[C@@H]21 | 4 (≈ 8.9 µM) | 8 (≈ 17.8 µM) | 16 (≈ 35.6 µM) | 128 (≈ 285 µM) | 4 (≈ 8.9 µM) | 4 (≈ 8.9 µM) |
| N#C[C@]1(c2ccc(-c3ccc(N4C[C@H](Cn5ccnn5)OC4=O)cc3F)cn2)[C@@H]2COC[C@@H]21 | 0.06 (≈ 0.134 µM) | 0.06 (≈ 0.134 µM) | 0.25 (≈ 0.56 µM) | 2 (≈ 4.48 µM) | 0.06 (≈ 0.134 µM) | 0.06 (≈ 0.134 µM) |
| N#C[C@]1(c2c(F)cc(-c3ccc(N4C[C@H](Cn5ccnn5)OC4=O)cc3F)cc2F)[C@@H]2CNC[C@@H]21 | 0.5 (≈ 1.04 µM) | 1 (≈ 2.08 µM) | 0.25 (≈ 0.52 µM) | > 128 | 0.5 (≈ 1.04 µM) | 1 (≈ 2.08 µM) |
| N#C[C@]1(c2ccc(-c3ccc(N4C[C@H](COc5ccon5)OC4=O)cc3F)cn2)[C@@H]2CNC[C@@H]21 | 0.06 (≈ 0.13 µM) | 0.06 (≈ 0.13 µM) | 0.125 (≈ 0.271 µM) | 4 (≈ 8.67 µM) | 0.06 (≈ 0.13 µM) | 0.125 (≈ 0.271 µM) |
